# Results published in ChEMBL document CHEMBL1759988, “Isatin-β-thiosemicarbazones as potent herpes simplex virus inhibitors” (Bioorg Med Chem Lett, 2011).
# pIC50: −log10 of the molar value.
# How the values were obtained:
# [1] = Cytotoxicity against human RD cells; assay type: cell-based
# Human alphaherpesvirus 1 = assay: Antiviral activity against HSV1 by plaque reduction assay; assay type: functional, organism-based
# Human alphaherpesvirus 2 = assay: Antiviral activity against HSV2 by plaque reduction assay; assay type: functional, organism-based
SMILES,CC50 [1] [µM],pIC50 (Human alphaherpesvirus 1),pIC50 (Human alphaherpesvirus 2)
O=C1Nc2ccccc2/C1=N/NC(=S)Nc1ccccc1,> 25,5.53,< 4.60
Cc1ccccc1NC(=S)N/N=C1\C(=O)Nc2ccccc21,> 25,< 4.60,< 4.60
Cc1cccc(NC(=S)NNC2=c3ccccc3=NC2=O)c1,> 25,5.42,< 4.60
Cc1ccc(NC(=S)N/N=C2\C(=O)Nc3ccccc32)cc1,> 25,< 4.60,< 4.60
COc1ccccc1NC(=S)N/N=C1\C(=O)Nc2ccccc21,> 25,< 4.60,< 4.60
COc1cccc(NC(=S)N/N=C2\C(=O)Nc3ccccc32)c1,> 25,5.58,< 4.60
O=C1Nc2ccccc2/C1=N/NC(=S)Nc1ccc(F)cc1,> 25,< 4.60,< 4.60
O=C1Nc2ccccc2/C1=N/NC(=S)Nc1ccccc1Cl,> 25,< 4.60,< 4.60
O=C1Nc2ccccc2/C1=N/NC(=S)Nc1cccc(Cl)c1,> 25,< 4.60,< 4.60
O=C1Nc2ccccc2/C1=N/NC(=S)Nc1ccc(Cl)cc1,> 25,5.57,< 4.60
O=C1Nc2ccccc2/C1=N/NC(=S)Nc1ccc(Br)cc1,> 25,5.48,< 4.60
O=C1Nc2ccccc2/C1=N/NC(=S)Nc1ccc(-n2cccn2)cc1,> 25,5.21,< 4.60
O=C1Nc2ccccc2/C1=N/NC(=S)Nc1ccc(N2CCOCC2)cc1,> 25,< 4.60,< 4.60
O=C(N/N=C1\C(=O)Nc2ccccc21)Nc1ccccc1,> 25,< 4.60,< 4.60
Cc1cccc(NC(=O)N/N=C2\C(=O)Nc3ccccc32)c1,> 25,< 4.60,< 4.60
Cc1ccc(NC(=O)N/N=C2\C(=O)Nc3ccccc32)cc1,> 25,< 4.60,< 4.60
COc1cccc(NC(=O)N/N=C2\C(=O)Nc3ccccc32)c1,> 25,< 4.60,< 4.60
O=C1Nc2ccc(Cl)cc2/C1=N/NC(=S)Nc1ccccc1,> 25,< 4.60,< 4.60
O=C1Nc2ccc(Br)cc2/C1=N/NC(=S)Nc1ccccc1,> 25,< 4.60,< 4.60

SMILES,CC50 [1] [µM],pIC50 (Human alphaherpesvirus 1),pIC50 (Human alphaherpesvirus 2)
COc1ccc2c(c1)/C(=N/NC(=S)Nc1ccccc1)C(=O)N2,> 25,5.30,< 4.60
CN1C(=O)/C(=N\NC(=S)Nc2ccccc2)c2ccccc21,> 25,< 4.60,< 4.60
CCN1C(=O)/C(=N\NC(=S)Nc2ccccc2)c2ccccc21,> 25,< 4.60,< 4.60
O=C1/C(=N\NC(=S)Nc2ccccc2)c2ccccc2N1c1ccccc1,> 25,< 4.60,< 4.60
O=C1/C(=N\NC(=S)Nc2ccccc2)c2ccccc2N1Cc1ccccc1,> 25,< 4.60,< 4.60
CCN(CC)C(=S)N/N=C1\C(=O)Nc2ccccc21,> 25,< 4.60,5.81
O=C1Nc2ccccc2/C1=N/NC(=S)N1CCCC1,> 25,< 4.60,5.24
O=C1Nc2ccccc2/C1=N/NC(=S)N1CCCCC1,> 25,< 4.60,5.50
CNC(=S)N/N=C1\C(=O)Nc2ccccc21,> 25,< 4.60,< 4.60
CCNC(=S)N/N=C1\C(=O)Nc2ccccc21,> 25,< 4.60,< 4.60
CCCNC(=S)N/N=C1\C(=O)Nc2ccccc21,> 25,< 4.60,< 4.60
O=C1Nc2ccc(F)cc2/C1=N/NC(=S)Nc1ccccc1,> 25,< 4.60,< 4.60
O=C1Nc2ccc(OC(F)(F)F)cc2/C1=N/NC(=S)Nc1ccccc1,> 25,5.23,< 4.60
COc1ccc(NC(=S)NNC2=c3ccccc3=NC2=O)cc1,> 25,5.66,< 4.60
Cc1ccc2c(c1)/C(=N/NC(=S)Nc1ccccc1)C(=O)N2,> 25,< 4.60,< 4.60
O=C1Nc2ccccc2/C1=N/NC(=S)N1CCOCC1,> 25,5.89,5.56
CN(C)C(=S)N/N=C1/C(=O)Nc2ccccc21,> 25,< 4.60,< 4.60
CCCN(CCC)C(=S)N/N=C1/C(=O)Nc2ccccc21,> 25,< 4.60,< 4.60
Nc1nc2c(ncn2COCCO)c(=O)[nH]1 [ACYCLOVIR],> 25,6.52,5.90
